Data published in ChEMBL document CHEMBL3992513, “Synthesis, anti-inflammatory, cyclooxygenases inhibitions assays and histopathological study of poly-substituted 1,3,5-triazines: Confirmation of regiospecific pyrazole cyclization by HMBC” (Eur J Med Chem, 2017).

Legend:
Rattus norvegicus [1] = test: Anti-inflammatory activity in Wistar albino rat assessed as inhibition of carragenan-induced paw edema thickness at 50 mg/kg, po measured after 3 hrs relative to control; assay type: functional
Rattus norvegicus [2] = test: Anti-inflammatory activity in Wistar albino rat assessed as inhibition of carragenan-induced paw edema thickness at 50 mg/kg, po measured after 1 hr relative to control; assay type: functional
Rattus norvegicus [3] = test: Anti-inflammatory activity in Wistar albino rat assessed as inhibition of carragenan-induced paw edema thickness at 50 mg/kg, po measured after 5 hrs relative to control; assay type: functional
[4] = molecular target: T1, Prostaglandin G/H synthase 1 (Ovis aries, UniProt P05979); test: Inhibition of ovine COX1 using arachidonic acid as substrate preincubated for 5 mins followed by substrate addition measured after 2 mins by enzyme immunoassay
T1 sequence (P05979 whole entry): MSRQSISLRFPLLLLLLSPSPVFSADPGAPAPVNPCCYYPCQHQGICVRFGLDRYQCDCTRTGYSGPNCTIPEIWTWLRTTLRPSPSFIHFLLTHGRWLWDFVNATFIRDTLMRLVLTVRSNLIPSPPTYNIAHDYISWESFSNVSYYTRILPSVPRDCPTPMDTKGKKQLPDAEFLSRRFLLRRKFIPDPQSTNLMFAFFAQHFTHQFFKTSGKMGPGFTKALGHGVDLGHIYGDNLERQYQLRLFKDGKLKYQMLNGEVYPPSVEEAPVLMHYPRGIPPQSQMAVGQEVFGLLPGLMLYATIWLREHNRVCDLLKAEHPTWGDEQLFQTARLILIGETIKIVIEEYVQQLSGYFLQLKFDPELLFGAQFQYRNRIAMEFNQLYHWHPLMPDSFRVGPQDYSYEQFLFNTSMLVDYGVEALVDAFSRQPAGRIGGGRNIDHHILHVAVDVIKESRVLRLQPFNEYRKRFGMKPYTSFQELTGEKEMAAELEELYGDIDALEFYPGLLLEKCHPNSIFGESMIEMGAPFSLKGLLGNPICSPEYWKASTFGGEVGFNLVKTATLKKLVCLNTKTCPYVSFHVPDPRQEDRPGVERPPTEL

Rattus norvegicus [5] = test: Ulcerogenicity in Wistar albino rat model of carragenan-induced paw edema assessed as hyalinosis and coagulative necrosis of muscular layer in stomach at 50 mg/kg, po by hematoxylin and eosin staining based histopathological analysis; assay type: toxicity, organism-based; conditions: in vivo
Rattus norvegicus [6] = test: Ulcerogenicity in Wistar albino rat model of carragenan-induced paw edema assessed as degenrative changes with necrotic changes in gastric mucosa at 50 mg/kg, po by hematoxylin and eosin staining based histopathological analysis; assay type: toxicity, organism-based; conditions: in vivo
Rattus norvegicus [7] = test: Ulcerogenicity in Wistar albino rat model of carragenan-induced paw edema assessed as leucocytic infiltration in sub mucosa at 50 mg/kg, po by hematoxylin and eosin staining based histopathological analysis; assay type: toxicity, organism-based; conditions: in vivo
Rattus norvegicus [8] = test: Ulcerogenicity in Wistar albino rat model of carragenan-induced paw edema assessed as blood vessel congestion with edema in sub-mucosa at 50 mg/kg, po by hematoxylin and eosin staining based histopathological analysis; assay type: toxicity, organism-based; conditions: in vivo
Rattus norvegicus [9] = test: Ulcerogenicity in Wistar albino rat model of carragenan-induced paw edema assessed as corrugations of muscular layer in stomach at 50 mg/kg, po by hematoxylin and eosin staining based histopathological analysis; assay type: toxicity, organism-based; conditions: in vivo
Rattus norvegicus [10] = test: Ulcerogenicity in Wistar albino rat model of carragenan-induced paw edema assessed as blood vessel dilation in sub-mucosa at 50 mg/kg, po by hematoxylin and eosin staining based histopathological analysis; assay type: toxicity, organism-based; conditions: in vivo

CC(=O)c1ccc(Nc2nc(N3CCOCC3)nc(N3CCOCC3)n2)cc1
inhibition in vivo at 50 mg/kg (Rattus norvegicus [1]): 8% | inhibition in vivo at 50 mg/kg (Rattus norvegicus [2]): 21% | inhibition in vivo at 50 mg/kg (Rattus norvegicus [3]): 0% | IC50 [4]: 5.93 µM

c1cc(-c2ccc(Nc3nc(N4CCOCC4)nc(N4CCOCC4)n3)cc2)[nH]n1
IC50 [4]: 5.26 µM

CS(=O)(=O)c1ccc(-n2nccc2-c2ccc(Nc3nc(N4CCOCC4)nc(N4CCOCC4)n3)cc2)cc1
Activity (Rattus norvegicus [5]): Non-Toxic | Activity (Rattus norvegicus [6]): Non-Toxic | IC50 [4]: 3.87 µM

c1ccc(-n2nccc2-c2ccc(Nc3nc(N4CCCCC4)nc(N4CCCCC4)n3)cc2)cc1
inhibition in vivo at 50 mg/kg (Rattus norvegicus [1]): 18% | inhibition in vivo at 50 mg/kg (Rattus norvegicus [2]): 32% | inhibition in vivo at 50 mg/kg (Rattus norvegicus [3]): 2% | IC50 [4]: 6.42 µM

CC(=O)c1ccc(Nc2nc(N3CCCCC3)nc(N3CCCCC3)n2)cc1
IC50 [4]: 8.23 µM

CN(C)/C=C/C(=O)c1ccc(Nc2nc(N3CCOCC3)nc(N3CCOCC3)n2)cc1
Activity (Rattus norvegicus [7]): Toxic | Activity (Rattus norvegicus [5]): Toxic | Activity (Rattus norvegicus [6]): Toxic | IC50 [4]: 3.98 µM

COc1cc(C2CC(c3ccc(Nc4nc(N5CCCCC5)nc(N5CCCCC5)n4)cc3)=NN2C(C)=O)cc(OC)c1OC (stereo unspecified)
Activity (Rattus norvegicus [7]): Toxic | inhibition in vivo at 50 mg/kg (Rattus norvegicus [1]): 34% | inhibition in vivo at 50 mg/kg (Rattus norvegicus [2]): 45% | inhibition in vivo at 50 mg/kg (Rattus norvegicus [3]): 2% | Activity (Rattus norvegicus [6]): Toxic | IC50 [4]: 3.52 µM

COc1cc(/C=C/C(=O)c2ccc(Nc3nc(N4CCOCC4)nc(N4CCOCC4)n3)cc2)cc(OC)c1OC
Activity (Rattus norvegicus [7]): Non-Toxic | Activity (Rattus norvegicus [8]): Toxic | Activity (Rattus norvegicus [5]): Non-Toxic | inhibition in vivo at 50 mg/kg (Rattus norvegicus [1]): 18% | inhibition in vivo at 50 mg/kg (Rattus norvegicus [2]): 58% | inhibition in vivo at 50 mg/kg (Rattus norvegicus [3]): 15% | Activity (Rattus norvegicus [6]): Non-Toxic | IC50 [4]: 4.65 µM

c1cc(-c2ccc(Nc3nc(N4CCCCC4)nc(N4CCCCC4)n3)cc2)on1
inhibition in vivo at 50 mg/kg (Rattus norvegicus [1]): 26% | inhibition in vivo at 50 mg/kg (Rattus norvegicus [2]): 51% | inhibition in vivo at 50 mg/kg (Rattus norvegicus [3]): 25% | IC50 [4]: 7.23 µM

CN(C)/C=C/C(=O)c1ccc(Nc2nc(N3CCCCC3)nc(N3CCCCC3)n2)cc1
inhibition in vivo at 50 mg/kg (Rattus norvegicus [1]): 14% | inhibition in vivo at 50 mg/kg (Rattus norvegicus [2]): 19% | inhibition in vivo at 50 mg/kg (Rattus norvegicus [3]): 20% | IC50 [4]: 6.85 µM

CS(=O)(=O)c1ccc(-n2nccc2-c2ccc(Nc3nc(N4CCCCC4)nc(N4CCCCC4)n3)cc2)cc1
inhibition in vivo at 50 mg/kg (Rattus norvegicus [1]): 38% | inhibition in vivo at 50 mg/kg (Rattus norvegicus [2]): 36% | inhibition in vivo at 50 mg/kg (Rattus norvegicus [3]): 20% | IC50 [4]: 7.98 µM

Cc1ccc(-c2cc(C(F)(F)F)nn2-c2ccc(S(N)(=O)=O)cc2)cc1 [CELECOXIB]
Activity (Rattus norvegicus [7]): Toxic | Activity (Rattus norvegicus [9]): Toxic | inhibition in vivo at 50 mg/kg (Rattus norvegicus [1]): 72% | inhibition in vivo at 50 mg/kg (Rattus norvegicus [2]): 77% | inhibition in vivo at 50 mg/kg (Rattus norvegicus [3]): 20% | Activity (Rattus norvegicus [10]): Toxic | Activity (Rattus norvegicus [6]): Toxic

COc1cc(/C=C/C(=O)c2ccc(Nc3nc(N4CCCCC4)nc(N4CCCCC4)n3)cc2)cc(OC)c1OC
IC50 [4]: 7.25 µM

c1cc(-c2ccc(Nc3nc(N4CCOCC4)nc(N4CCOCC4)n3)cc2)on1
IC50 [4]: 4.33 µM

c1cc(-c2ccc(Nc3nc(N4CCCCC4)nc(N4CCCCC4)n3)cc2)[nH]n1
inhibition in vivo at 50 mg/kg (Rattus norvegicus [1]): 24% | inhibition in vivo at 50 mg/kg (Rattus norvegicus [2]): 58% | inhibition in vivo at 50 mg/kg (Rattus norvegicus [3]): 5% | IC50 [4]: 4.95 µM

COc1cc(C2CC(c3ccc(Nc4nc(N5CCOCC5)nc(N5CCOCC5)n4)cc3)=NN2C(C)=O)cc(OC)c1OC (stereo unspecified)
IC50 [4]: 8.61 µM

COc1ccc2c(c1)c(CC(=O)O)c(C)n2C(=O)c1ccc(Cl)cc1 [INDOMETHACIN]
Activity (Rattus norvegicus [7]): Toxic | Activity (Rattus norvegicus [5]): Toxic | Activity (Rattus norvegicus [10]): Toxic | Activity (Rattus norvegicus [6]): Toxic

c1ccc(-n2nccc2-c2ccc(Nc3nc(N4CCOCC4)nc(N4CCOCC4)n3)cc2)cc1
Activity (Rattus norvegicus [7]): Toxic | Activity (Rattus norvegicus [8]): Toxic | Activity (Rattus norvegicus [5]): Toxic | Activity (Rattus norvegicus [6]): Toxic | IC50 [4]: 4.99 µM
